# From ChEMBL document CHEMBL3739371, “Small molecules enhance functional O-mannosylation of Alpha-dystroglycan” (Bioorg Med Chem, 2015)
# Calls of active or inactive are those of the source. No cut-off for these calls is given here.
# Legend:
# [1] = biological target: T1, Dystroglycan (Cricetulus griseus) (UniProt G3H8F4); assay: Increase of functional O-mannosylation of alpha-dystroglycan in Chinese hamster Lec15.2 cells after 24 hrs by fluorescence assay
# T1 sequence (whole entry): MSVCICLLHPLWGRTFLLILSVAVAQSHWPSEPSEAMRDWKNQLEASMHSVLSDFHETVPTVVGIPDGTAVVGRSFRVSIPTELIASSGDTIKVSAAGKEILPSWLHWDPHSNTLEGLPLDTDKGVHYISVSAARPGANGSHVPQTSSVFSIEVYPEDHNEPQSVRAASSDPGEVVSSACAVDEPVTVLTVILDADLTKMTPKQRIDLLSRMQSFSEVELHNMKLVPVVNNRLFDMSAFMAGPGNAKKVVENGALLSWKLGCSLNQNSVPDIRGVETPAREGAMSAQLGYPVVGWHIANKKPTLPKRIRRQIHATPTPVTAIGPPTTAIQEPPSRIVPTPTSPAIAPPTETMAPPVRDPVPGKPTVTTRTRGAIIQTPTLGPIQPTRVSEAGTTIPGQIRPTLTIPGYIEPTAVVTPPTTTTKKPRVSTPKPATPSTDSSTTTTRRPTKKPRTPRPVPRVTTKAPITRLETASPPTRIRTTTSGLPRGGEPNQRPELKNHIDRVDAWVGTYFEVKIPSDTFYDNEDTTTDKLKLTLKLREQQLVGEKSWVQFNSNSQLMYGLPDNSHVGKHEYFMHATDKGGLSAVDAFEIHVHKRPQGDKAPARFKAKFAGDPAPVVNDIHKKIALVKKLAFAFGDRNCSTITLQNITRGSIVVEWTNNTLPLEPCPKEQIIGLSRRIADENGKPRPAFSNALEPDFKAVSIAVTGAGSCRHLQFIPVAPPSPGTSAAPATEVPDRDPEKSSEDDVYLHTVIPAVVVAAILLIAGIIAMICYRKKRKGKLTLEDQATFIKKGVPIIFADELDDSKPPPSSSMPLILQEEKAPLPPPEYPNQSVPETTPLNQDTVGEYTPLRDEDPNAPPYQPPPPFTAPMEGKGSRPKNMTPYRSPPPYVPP
# [2] = biological target: T2, Dystroglycan 1 (Homo sapiens) (UniProt Q14118); assay: Increase of functional O-mannosylation of alpha-dystroglycan in FKRP-deficient human myotubes after 24 hrs by fluorescence assay
# T2 sequence (whole entry): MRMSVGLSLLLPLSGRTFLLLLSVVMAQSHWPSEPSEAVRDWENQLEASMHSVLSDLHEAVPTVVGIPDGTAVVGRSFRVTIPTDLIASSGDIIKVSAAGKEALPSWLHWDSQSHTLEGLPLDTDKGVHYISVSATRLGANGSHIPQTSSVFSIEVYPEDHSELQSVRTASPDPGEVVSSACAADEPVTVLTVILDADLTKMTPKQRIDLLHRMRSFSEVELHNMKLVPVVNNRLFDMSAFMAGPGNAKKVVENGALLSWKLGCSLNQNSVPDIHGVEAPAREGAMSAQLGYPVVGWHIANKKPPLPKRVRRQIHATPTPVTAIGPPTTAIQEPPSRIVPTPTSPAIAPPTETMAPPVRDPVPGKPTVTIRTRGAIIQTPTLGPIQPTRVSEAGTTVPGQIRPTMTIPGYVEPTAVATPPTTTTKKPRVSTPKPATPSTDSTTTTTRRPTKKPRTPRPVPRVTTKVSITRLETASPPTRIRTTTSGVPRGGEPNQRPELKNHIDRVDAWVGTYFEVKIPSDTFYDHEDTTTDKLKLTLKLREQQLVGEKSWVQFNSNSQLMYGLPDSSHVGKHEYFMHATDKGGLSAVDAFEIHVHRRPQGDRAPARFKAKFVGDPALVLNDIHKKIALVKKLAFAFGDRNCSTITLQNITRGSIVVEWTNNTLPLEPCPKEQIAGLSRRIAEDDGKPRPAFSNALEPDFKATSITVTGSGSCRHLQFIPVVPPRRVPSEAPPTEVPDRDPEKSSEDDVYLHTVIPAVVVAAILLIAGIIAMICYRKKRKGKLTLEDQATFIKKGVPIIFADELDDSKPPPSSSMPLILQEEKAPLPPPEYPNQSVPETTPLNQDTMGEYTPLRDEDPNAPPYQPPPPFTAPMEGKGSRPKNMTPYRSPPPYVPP
# [3] = biological target: T3, Dystroglycan 1 (Mus musculus) (UniProt Q62165); assay: Increase of functional O-mannosylation of alpha-dystroglycan in mouse C2C12 cells expressing LARGE after 48 hrs by alpha-screen assay; assay type: cell-based
# T3 sequence (whole entry): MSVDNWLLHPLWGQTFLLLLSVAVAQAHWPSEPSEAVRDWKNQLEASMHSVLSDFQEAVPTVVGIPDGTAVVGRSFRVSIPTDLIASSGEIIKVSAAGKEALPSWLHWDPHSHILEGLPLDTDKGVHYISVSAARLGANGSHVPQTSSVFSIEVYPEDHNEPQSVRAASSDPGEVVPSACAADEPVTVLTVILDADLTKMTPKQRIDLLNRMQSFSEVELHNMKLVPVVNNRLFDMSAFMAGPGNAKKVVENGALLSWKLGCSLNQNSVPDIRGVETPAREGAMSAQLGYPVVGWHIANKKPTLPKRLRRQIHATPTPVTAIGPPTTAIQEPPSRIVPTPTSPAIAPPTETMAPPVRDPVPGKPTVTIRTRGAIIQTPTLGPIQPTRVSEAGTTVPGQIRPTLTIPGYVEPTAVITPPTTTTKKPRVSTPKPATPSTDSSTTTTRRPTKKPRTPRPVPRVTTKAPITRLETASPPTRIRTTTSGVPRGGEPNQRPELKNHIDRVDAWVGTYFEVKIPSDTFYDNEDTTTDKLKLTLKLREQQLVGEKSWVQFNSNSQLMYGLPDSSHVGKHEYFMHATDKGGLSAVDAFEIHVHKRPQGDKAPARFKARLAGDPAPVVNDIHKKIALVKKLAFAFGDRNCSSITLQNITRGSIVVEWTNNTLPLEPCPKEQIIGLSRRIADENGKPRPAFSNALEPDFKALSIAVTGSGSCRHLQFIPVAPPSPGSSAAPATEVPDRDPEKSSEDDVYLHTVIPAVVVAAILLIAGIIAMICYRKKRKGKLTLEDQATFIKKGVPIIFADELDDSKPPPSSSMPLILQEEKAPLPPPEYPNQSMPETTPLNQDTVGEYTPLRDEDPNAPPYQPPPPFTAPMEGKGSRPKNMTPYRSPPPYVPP
# [4] = biological target: T2, Dystroglycan 1 (Homo sapiens); assay: Increase of functional O-mannosylation of alpha-dystroglycan in human myotubes expressing myogenin after 48 hrs by alpha-screen assay
# [5] = biological target: T2, Dystroglycan 1 (Homo sapiens); assay: Increase of functional O-mannosylation of alpha-dystroglycan in human myotubes after 48 hrs by immunofluorescence assay
# [6] = biological target: T3, Dystroglycan 1 (Mus musculus); assay: Increase of functional O-mannosylation of alpha-dystroglycan in mouse C2C12 cells after 48 hrs by immunofluorescence assay; assay type: cell-based
# [7] = biological target: T1, Dystroglycan (Cricetulus griseus); assay: Increase of functional O-mannosylation of alpha-dystroglycan in Chinese hamster pgsl-208 cells after 24 hrs by fluorescence assay
# [8] = biological target: T1, Dystroglycan (Cricetulus griseus); assay: Increase of functional O-mannosylation of alpha-dystroglycan in Chinese hamster pro5 cells expressing LARGE after 48 hrs by alpha-screen assay; assay type: cell-based
# [9] = biological target: T3, Dystroglycan 1 (Mus musculus); assay: Increase of functional O-mannosylation of alpha-dystroglycan in mouse C2C12 cells expressing myogenin after 48 hrs by immunofluorescence assay; assay type: cell-based
# [10] = biological target: T2, Dystroglycan 1 (Homo sapiens); assay: Increase of functional O-mannosylation of alpha-dystroglycan in human myoblasts after 48 hrs by immunofluorescence assay
# [11] = biological target: T1, Dystroglycan (Cricetulus griseus); assay: Increase of functional O-mannosylation of alpha-dystroglycan in Chinese hamster B421 cells after 24 hrs by fluorescence assay relative to control; assay type: cell-based
smiles,measurement,setting,value
CCC(c1nnnn1Cc1cccs1)N1CCN(c2nc3cc(N)cc(F)c3s2)CC1 (stereo unspecified),Activity,[1],inactive
same,Activity,[2],Active
same,fold change (FC),[3],8
same,Activity,[4],Active
same,Activity,[5],inactive
same,Activity,[6],Active
same,Activity,[7],inactive
same,EC1.5,[8],1.2 µM
same,Activity,[9],Active
same,Activity,[10],inactive
same,fold change (FC),[11],< 6
